The source made the active and inactive calls.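 How the source made its calls: active means compounds whose fitted IC50 falls under 25000 nM; inactive means the rest.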

The experiment deals with Serine/threonine-protein phosphatase 5 (Homo sapiens) (UniProt P53041). The experiment can be described thus: PP5c phosphatase inhibition potency – biochemical, fluorescence, round 5, 3.8 nM low dose, dose response (AID 624433). The following applies: purified PP5c, OMFP dephosphorylation.
Sequence of Serine/threonine-protein phosphatase 5 (Homo sapiens) (P53041 whole entry, looked up): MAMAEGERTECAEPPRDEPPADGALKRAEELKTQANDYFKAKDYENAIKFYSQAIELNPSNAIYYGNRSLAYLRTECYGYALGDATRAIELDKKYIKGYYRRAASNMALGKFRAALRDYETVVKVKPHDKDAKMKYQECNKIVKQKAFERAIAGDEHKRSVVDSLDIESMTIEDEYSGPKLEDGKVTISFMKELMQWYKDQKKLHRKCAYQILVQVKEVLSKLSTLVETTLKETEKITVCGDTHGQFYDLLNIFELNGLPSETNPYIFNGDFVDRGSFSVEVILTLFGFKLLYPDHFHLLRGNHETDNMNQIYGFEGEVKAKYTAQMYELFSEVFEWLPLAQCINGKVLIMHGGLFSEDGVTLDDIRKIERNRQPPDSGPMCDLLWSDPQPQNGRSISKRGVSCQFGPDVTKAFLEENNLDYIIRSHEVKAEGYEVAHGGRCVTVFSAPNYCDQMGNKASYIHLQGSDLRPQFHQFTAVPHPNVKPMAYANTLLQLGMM
Consider `CCOc1ccccc1-c1n[nH]nc1C(=O)O`, for which the 50% inhibitory concentration (IC50) was 3.62 µM.
Turning to `CC(C)c1ccccc1-c1n[nH]nc1C(=O)O`, the IC50 result was “inactive”.
Turning to `O=C(O)c1n[nH]nc1-c1ccccn1`, the IC50 result is “inactive”.
For the molecule `O=C(O)c1n[nH]nc1-c1ccccc1-c1ccccc1`, the IC50 result was “inactive”.
On to `CC(C)Oc1ccccc1-c1n[nH]nc1C(=O)O`, for which the IC50 was 2.86 µM.
As for `CCc1ccccc1-c1n[nH]nc1C(=O)O`, the figure is 19.9 µM.
On to `Cc1ccccc1-c1n[nH]nc1C(=O)O`, for which the IC50 is 16.1 µM.

The IC50 is the concentration needed to halve the response being measured.

The record behind these values is PubChem BioAssay AID624433 (The Scripps Research Institute Molecular Screening Center, 2012).
